From patent US5194437A, “1,4-disubstituted piperazines” (Adir et Compagnie, priority 1990, dated 1993) come the findings set out here.

The target in test [1] is T1, 5-HT1A receptors (Rattus norvegicus, UniProt P19327).
T1 sequence (P19327 1-422): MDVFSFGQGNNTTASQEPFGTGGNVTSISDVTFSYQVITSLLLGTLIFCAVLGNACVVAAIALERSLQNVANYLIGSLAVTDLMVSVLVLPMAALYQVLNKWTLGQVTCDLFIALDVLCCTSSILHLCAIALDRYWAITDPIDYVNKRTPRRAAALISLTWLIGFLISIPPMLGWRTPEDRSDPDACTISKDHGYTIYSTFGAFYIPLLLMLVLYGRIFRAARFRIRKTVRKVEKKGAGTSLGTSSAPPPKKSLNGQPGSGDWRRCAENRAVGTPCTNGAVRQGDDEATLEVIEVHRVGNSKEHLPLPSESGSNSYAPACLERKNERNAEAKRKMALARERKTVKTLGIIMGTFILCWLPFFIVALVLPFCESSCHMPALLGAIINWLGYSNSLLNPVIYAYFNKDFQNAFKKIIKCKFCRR
As to the kind of experiment: Body temperature (hypothermia), agonist and antagonist activity. In kind it is in vivo, male Wistar rats. Details: from tissue; host or cells: whole animal, male Wistar rat (in vivo). The note with it: for Hypothermia M.E.D.: agonist: induction of hypothermia, s.c., minimum effective dose; for ED50: rat, sc, 1 h, antagonist: inhibition of hypothermia induced by 8-OH-DPAT 0.16 mg/kg s.c., compound s.c. 60 min before test, read-out: Hypothermia ID50 (95% C.L.). Here is the method: (§1) The tests were carried out on male Wistar rats weighing from 200 to 220 g which had free access to food and drinking water, in standard cages.
(§2) The animals are housed individually for the hypothermia, corticosterone secretion and flat body posture tests, and in groups of three for the tail flick test.
(§3) The laboratory temperature is kept at 21°±1° C., with 60 ±5% humidity. The rats are subjected to a light/dark cycle of 12 hours/12 hours (the light cycle commencing at 7.30 a.m.).
(§4) a/ General procedure for tests of agonist and antagonist activities on 5-HT1A receptors.
(§5) The test compounds were administered subcutaneously (s.c.) 60 minutes before the start of the test, that is to say 30 minutes before the vehicle (agonist responses) or 8-OH-DPAT (antagonist responses).
(§6) In all the tests, the solvent is used in parallel as the control. The animals were allowed to rest in their cages during the time between the injections and evaluation.
(§7) For the agonist studies, the solvent was administered at a dose of 1 ml/kg s.c. 30 minutes before the start of the test. For the antagonist studies, doses of 8-OH-DPAT inducing sub-maximal responses were chosen, i.e. doses of 0.63, 0.16, 0.16 and 0.16 mg/kg s.c. for the tail flick test, the flat body posture test, the corticosterone secretion test and the hypothermia test, respectively.
The rats are immobilised and a lubricated digital thermometer (Thermistoprobe from Testotherm, Basle, Switzerland) is inserted into the rectum to a depth of 5 cm. 30 seconds after insertion, the temperature is read off a digital scale. The percentage inhibition is calculated with the aid of the formula mentioned above.
(§8) In general, after variance analysis, the results are subjected to Dunnett's test. Results are regarded as significant if p<0.05.
(§9) The doses of the test compounds are all expressed in terms of the base. Unless otherwise mentioned, all the compounds were dissolved in sterile water (to which a few drops of lactic acid are added, if necessary) and administered at a volume of 1 ml/kg s.c..

Test [2] deals with T1, 5-HT1A receptors. As to the kind of experiment: In vitro binding test, 5-HT1A receptors, [3]H-8-OH-DPAT, rat hippocampus membranes. Further details: Hippocampus from the brains of decapitated rats; from tissue; host or cells: rat hippocampus membranes (male Wistar); species or system rat (male Wistar). The note with it: for Affinity (pKi): hot ligand [3]H-8-OH-DPAT 0.4 nM, rat hippocampus membranes, 25° C., 30 minutes.
Protocol: Hippocampus from the brains of decapitated rats was immediately frozen on dry ice and then stored at -80° C. until preparation of membranes. The tissue was homogenised at 4° C. in the appropriate buffer using a Polytron (Brinkman Instruments - Lucerne - Switzerland) and centrifuged at 20,000 rpm.
Incubation was carried out at 25° C. for 30 minutes. Non-specific binding was defined by 10 μM of 5-HT. The tests were terminated by rapid filtration by means of a Brandel harvester over glass-fibre filters pretreated with 0.1% polyethyleneimine.
The inhibitory concentration 50 values (IC50) were determined according to method 8 of Tallarida R. J. and Murray R. B., Manual of pharmacological calculations with computer programs, Springer Verlag, N.Y. (1987).
The pKi was calculated according to the formula [formula] where [L] is the concentration of the hot ligand ([3]H-8-OH-DPAT, 0.4 nM) and Kd is the apparent dissociation constant determined from saturation experiments.
The test substances were dissolved in the incubation buffer.

Test [3] concerns the target T1, 5-HT1A receptors. As to the kind of experiment: Corticosterone secretion (CS), plasma, agonist and antagonist activity. In kind it is in vivo, male Wistar rats. Further details: from tissue; host or cells: whole animal, male Wistar rat (in vivo). The note with it: for Corticosterone secretion M.E.D.: agonist: induction of CS, s.c., minimum effective dose; for ED50: rat, sc, 1 h, antagonist: inhibition of CS induced by 8-OH-DPAT 0.16 mg/kg s.c., compound s.c. 60 min before test, read-out: Corticosterone secretion ID50 (95% C.L.). As to the method: as §1, §2, §3, §4, §5, §6, §7
(§10) The same animals were employed for the evaluation of the effect of the test compounds on the FBP and for the determination of the plasma levels of CS. All the tests were carried out in the morning between 10.30 and 12.30, i.e. when the cicardian levels of CS are at their lowest.
(§11) The presence of FBP is defined by a characteristic posture of the animal. The animal is then in a position of ventral decubitus with the hind limbs clearly in extension. 5 minutes after observation of FBP, the animals are decapitated and the trunk blood is collected in chilled tubes containing 50 μl of a 10% EDTA solution. After centrifugation at 4000 rpm, the plasma is removed and stored at -30° C. until assay.
CS was determined using a radio-competitive assay for a CS-binding protein in plasma: transcortin. The latter is obtained from monkey serum. Separation of the CS-transcortin complexes from free CS was effected by means of a solution of dextran and active charcoal. The detection limit was 50 pg/tube. Intra- and inter-assay variations were 5 and 15%, respectively [cf. Rivet J. M. et al., Eur. J. Pharmacol., 183, 634-635 (1990)].
Since the base levels of CS in plasma are never zero, the following formula was used to calculate the percentage inhibition of plasmatic CS induced by 8-OH-DPAT: [formula]
as §8, §9

Test [4] concerns the target T1, 5-HT1A receptors. The experiment in a line: Flat body posture (FBP), agonist response and antagonism of 8-OH-DPAT. In kind it is in vivo, male Wistar rats. Further details: from tissue; host or cells: whole animal, male Wistar rat (in vivo). The note with it: sc. Here is the method: as §1, §2, §3, §4, §5, §6, §7, §10
25 minutes after the treatment (i.e. 5 minutes before decapitation), the animals are observed in their cages and the presence or absence of FBP is noted.
as §11, §8
For the dose-response for induction and inhibition of FBP, the effective doses 50 (ED50) (doses at which 50% of the animals show a response) were calculated by the method of Litchfield and Wilcoxon.
as §9

Test [5] deals with T1, 5-HT1A receptors. As to the kind of experiment: Spontaneous tail flick test (STF), agonist and antagonist activity. Details: from tissue; host or cells: whole animal, male Wistar rat (in vivo). In kind it is in vivo, male Wistar rats. Conditions: for Spontaneous tail flicks M.E.D.: agonist: induction of STF, s.c., minimum effective dose; for ED50: rat, sc, 1 h, antagonist: inhibition of STF induced by 8-OH-DPAT 0.63 mg/kg s.c., compound s.c. 60 min before test, read-out: Spontaneous tail flicks ID50 (95% C.L.). Here is the method:
as §1, §2, §3, §4, §5, §6, §7
Tail flicks were determined in animals restrained in horizontal, opaque plastics cylinders, the animals' tails hanging freely over the edge of the laboratory bench. After a 5-minute adaptation period, the number of movements made in 5 minutes is recorded. One STF is defined as the raising of the tail to a level higher than the level of the body axis [Millan M. J. et al., J. Pharmacol. Exp. Ther., 256, 973-982 (1990)].
as §8, §9
In general terms: Thermal pain tests record how soon the animal reacts.

For test [6], the target named is T1, 5-HT1A receptors. The experiment in a line: Overall agonist/antagonist behaviour at 5-HT1A receptors (in vivo tests). The note with it: conclusion from Tables 1 and 2. Further details: from tissue; host or cells: whole animal, male Wistar rat (in vivo); species or system male Wistar rats. Here is the method: as §4, §5, §6, §7
Setting [7] is: 1 h, read-out: Flat body posture ED50 (95% C.L.), antagonism of 8-OH-DPAT, inhibition of FBP, 8-OH-DPAT 0.16 mg/kg s.c., compound s.c. 60 min before test.
Where [8] appears, read: induction of FBP, s.c., dose at which 50% of the animals show a response, read-out: Flat body posture ED50 (95% C.L.), agonist response.

Where only a bound is given, the exact number is not on record here.

Turning to `c1ccc2c(c1)CC(N1CCN(c3cccc4c3OCCO4)CC1)C2` [Example 7, 4-(benzodioxan-5-yl)-1-(indan-2-yl)-piperazine], the “Hypothermia M.E.D.” value at 5-HT1A receptors [1] turned out to be 20.0 mg/kg. In addition, the ED50 is 1.6 mg/kg on 5-HT1A receptors [1]; 2.5 mg/kg on 5-HT1A receptors [3]; 0.52 mg/kg on 5-HT1A receptors [4] (setting [7]); greater than 10 mg/kg on 5-HT1A receptors [4] (setting [8]); 0.74 mg/kg at 5-HT1A receptors [5]. For the same molecule, the “Affinity (pKi)” value at 5-HT1A receptors [2] turned out to be 8.75. Besides, the “Corticosterone secretion M.E.D.” value on 5-HT1A receptors [3] was greater than 10.0 mg/kg. On 5-HT1A receptors [5], the “Spontaneous tail flicks M.E.D.” value is greater than 10.0 mg/kg.
For `c1ccc2c(c1)CC(N1CCN(c3cccc4c3OCCCO4)CC1)C2` [Example 9, 4-[benzo(1,5)dioxepin-6-yl]-1-(indan-2-yl)-piperazine], the “Hypothermia M.E.D.” value on 5-HT1A receptors [1] was 5.0 mg/kg. For the same molecule, the ED50 is 4.36 mg/kg on 5-HT1A receptors [1]; greater than 2.5 mg/kg on 5-HT1A receptors [3]; less than 2.5 mg/kg at 5-HT1A receptors [4] (setting [7]); greater than 2.5 mg/kg on 5-HT1A receptors [4] (setting [8]); 1.59 mg/kg at 5-HT1A receptors [5]. At 5-HT1A receptors [2], the “Affinity (pKi)” value is listed as 8.42. The “Corticosterone secretion M.E.D.” value on 5-HT1A receptors [3] is on record as greater than 2.5 mg/kg. Further, on 5-HT1A receptors [5], the “Spontaneous tail flicks M.E.D.” value was greater than 10.0 mg/kg.
For orientation: Ki means a measure of affinity in units of concentration, obtained from inhibition or displacement. Lower therefore signals higher affinity. On to `c1ccc2c(c1)CC(CN1CCN(c3cccc4c3OCCO4)CC1)C2` [Example 14, 4-(benzodioxan-5-yl)-1-[(indan-2-yl)-methyl]-piperazine], for which the “Hypothermia M.E.D.” value at 5-HT1A receptors [1] was greater than 10.0 mg/kg. For the same molecule, the ED50 at 5-HT1A receptors [1] is less than 2.5 mg/kg; on 5-HT1A receptors [3] it was greater than 2.5 mg/kg; on 5-HT1A receptors [4] (setting [7]), no less than 2.5 mg/kg; on 5-HT1A receptors [4] (setting [8]), greater than 2.5 mg/kg; on 5-HT1A receptors [5] it was 0.19 mg/kg. Moreover, at 5-HT1A receptors [2], the Ki was 3.39 nM. Further, the “Corticosterone secretion M.E.D.” value on 5-HT1A receptors [3] was greater than 2.5 mg/kg.
Turning to `c1ccc2c(c1)CC(CCN1CCN(c3cccc4c3OCCO4)CC1)C2` [Example 20, 4-(benzodioxan-5-yl)-1-[2-(indan-2-yl)-ethyl]-piperazine], on 5-HT1A receptors [1], the “Hypothermia M.E.D.” value stood at 10.0 mg/kg. For the same molecule, the ED50 at 5-HT1A receptors [1] was 0.58 mg/kg; on 5-HT1A receptors [3] it was less than 2.5 mg/kg; at 5-HT1A receptors [4] (setting [7]), less than 2.5 mg/kg; at 5-HT1A receptors [4] (setting [8]), greater than 2.5 mg/kg; on 5-HT1A receptors [5], 0.18 mg/kg. In addition, on 5-HT1A receptors [2], the “Affinity (pKi)” value amounted to 9.18. For the same molecule, the “Corticosterone secretion M.E.D.” value at 5-HT1A receptors [3] was greater than 2.5 mg/kg.
As for `O=C1CC2(CCCC2)CC(=O)N1CCCCN1CCN(c2ncccn2)CC1` [buspirone, reference compound], the “Behaviour towards 5-HT1A receptors” value at 5-HT1A receptors [6] is reported as “agonist behaviour”. The “Hypothermia M.E.D.” value at 5-HT1A receptors [1] worked out at 2.5 mg/kg. At 5-HT1A receptors [3], the “Corticosterone secretion M.E.D.” value is given as greater than 2.5 mg/kg. In addition, the ED50 on 5-HT1A receptors [3] was greater than 10 mg/kg; on 5-HT1A receptors [4] (setting [7]), greater than 10 mg/kg; on 5-HT1A receptors [4] (setting [8]), 7.4 mg/kg; on 5-HT1A receptors [5], 3.71 mg/kg. The “Spontaneous tail flicks M.E.D.” value at 5-HT1A receptors [5] is on record as greater than 10.0 mg/kg.
